Read-outs that look alike come from different tables or passages of the source.
Assays:
[1] = target: T1, hTRPA1-dTM5 (Homo sapiens / Drosophila melanogaster, UniProt O75762+Q7Z020); assay type: cell-based
[2] = target: T2, hTRPA1 (Homo sapiens, UniProt O75762); assay: FLIPR calcium assay, wild type hTRPA1; assay type: cell-based
[3] = target: dTRPA1-mN (Mus musculus / Drosophila melanogaster, UniProt Q7Z020+Q8BLA8); assay type: cell-based
[4] = tested on: mosquito-TRPA1; assay: FLIPR calcium assay, mosquito-TRPA1; assay type: cell-based, Anopheles gambiae
[5] = target: T1, hTRPA1-dTM5; assay: Whole-cell patch-clamp, HEK293T cells expressing hTRPA1-dTM5; assay type: cell-based; settings: 250 μM menthol
[6] = tested on: fugu-TRPA1; assay: FLIPR calcium assay, fugu-TRPA1; assay type: cell-based, Takifugu
[7] = target: T3, dTRPA1 (Drosophila melanogaster, UniProt Q7Z020); assay: Whole-cell patch-clamp, HEK293T cells expressing dTRPA1; assay type: cell-based; settings: at +120 mV
T3 sequence (Q7Z020 1-1197): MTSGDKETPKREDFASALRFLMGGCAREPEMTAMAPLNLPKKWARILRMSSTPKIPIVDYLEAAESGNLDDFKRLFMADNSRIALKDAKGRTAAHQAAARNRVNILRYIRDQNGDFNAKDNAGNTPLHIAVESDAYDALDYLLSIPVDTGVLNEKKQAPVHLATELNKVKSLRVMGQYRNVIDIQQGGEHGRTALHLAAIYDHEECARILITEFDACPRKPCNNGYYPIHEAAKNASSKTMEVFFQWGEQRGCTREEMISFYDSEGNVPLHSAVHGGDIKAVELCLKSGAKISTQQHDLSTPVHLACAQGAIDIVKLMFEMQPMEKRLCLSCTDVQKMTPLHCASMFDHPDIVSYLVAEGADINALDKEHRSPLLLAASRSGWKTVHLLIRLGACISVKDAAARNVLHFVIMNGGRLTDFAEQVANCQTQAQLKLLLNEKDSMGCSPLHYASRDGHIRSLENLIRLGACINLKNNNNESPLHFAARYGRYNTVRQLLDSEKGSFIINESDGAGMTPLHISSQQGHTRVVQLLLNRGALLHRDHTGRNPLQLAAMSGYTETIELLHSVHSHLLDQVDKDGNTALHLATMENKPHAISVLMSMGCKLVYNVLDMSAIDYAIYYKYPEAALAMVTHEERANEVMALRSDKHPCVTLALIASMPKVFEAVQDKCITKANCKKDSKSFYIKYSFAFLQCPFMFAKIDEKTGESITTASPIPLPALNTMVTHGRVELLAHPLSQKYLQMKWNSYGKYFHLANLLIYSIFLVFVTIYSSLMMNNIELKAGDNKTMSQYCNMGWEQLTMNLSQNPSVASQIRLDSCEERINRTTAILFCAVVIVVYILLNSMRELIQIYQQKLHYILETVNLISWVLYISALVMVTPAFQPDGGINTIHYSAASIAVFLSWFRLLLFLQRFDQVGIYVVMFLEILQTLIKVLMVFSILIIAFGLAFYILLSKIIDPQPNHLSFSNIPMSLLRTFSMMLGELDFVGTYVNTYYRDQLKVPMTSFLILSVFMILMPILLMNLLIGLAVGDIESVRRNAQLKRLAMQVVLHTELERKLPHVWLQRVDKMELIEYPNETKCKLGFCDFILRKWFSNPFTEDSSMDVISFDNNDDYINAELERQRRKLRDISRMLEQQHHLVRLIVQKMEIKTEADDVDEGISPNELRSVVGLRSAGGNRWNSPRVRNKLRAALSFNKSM

[8] = target: T4, mTRPA1 (Mus musculus, UniProt Q8BLA8); assay: cell-based
T4 sequence (Q8BLA8 whole entry): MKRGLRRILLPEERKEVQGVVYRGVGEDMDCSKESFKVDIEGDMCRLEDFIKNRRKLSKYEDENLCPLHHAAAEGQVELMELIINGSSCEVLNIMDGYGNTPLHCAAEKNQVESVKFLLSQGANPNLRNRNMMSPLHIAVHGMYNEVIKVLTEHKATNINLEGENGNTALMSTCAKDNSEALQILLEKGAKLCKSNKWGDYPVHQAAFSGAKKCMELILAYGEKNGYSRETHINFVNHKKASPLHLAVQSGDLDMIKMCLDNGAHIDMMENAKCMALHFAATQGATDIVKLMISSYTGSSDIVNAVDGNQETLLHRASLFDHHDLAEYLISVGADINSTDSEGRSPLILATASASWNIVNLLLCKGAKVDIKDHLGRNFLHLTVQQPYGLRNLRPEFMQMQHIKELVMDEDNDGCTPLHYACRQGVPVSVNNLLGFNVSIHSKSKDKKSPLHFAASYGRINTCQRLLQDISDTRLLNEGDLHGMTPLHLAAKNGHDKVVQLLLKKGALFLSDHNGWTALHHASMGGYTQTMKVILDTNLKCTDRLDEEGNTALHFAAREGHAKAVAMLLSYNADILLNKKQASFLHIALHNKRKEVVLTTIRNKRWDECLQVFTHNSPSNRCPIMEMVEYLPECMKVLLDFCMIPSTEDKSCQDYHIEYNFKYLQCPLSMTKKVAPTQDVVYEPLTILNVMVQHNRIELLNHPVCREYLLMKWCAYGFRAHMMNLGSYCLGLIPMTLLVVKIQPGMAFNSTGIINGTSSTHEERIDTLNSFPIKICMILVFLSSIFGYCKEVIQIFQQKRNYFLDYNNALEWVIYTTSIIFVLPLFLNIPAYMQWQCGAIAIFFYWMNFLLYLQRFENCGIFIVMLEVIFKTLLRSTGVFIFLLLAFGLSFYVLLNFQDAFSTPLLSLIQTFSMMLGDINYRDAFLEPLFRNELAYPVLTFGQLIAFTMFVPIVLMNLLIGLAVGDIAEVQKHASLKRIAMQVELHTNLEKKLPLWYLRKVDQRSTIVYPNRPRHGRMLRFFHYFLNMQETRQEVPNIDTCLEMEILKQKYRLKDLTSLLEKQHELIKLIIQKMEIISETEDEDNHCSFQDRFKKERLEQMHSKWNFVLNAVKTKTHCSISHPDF

[9] = target: mTRPA1-hTM5-6 (Mus musculus, UniProt Q8BLA8, A900P/A924S/A946S/D923E/F870L/F897L/F930L/G878V/G942A/I945V/L908I/L929Y/M949I/T903S/T940S/V893I/Y936H); assay: FLIPR calcium assay, chimera mTRPA1-hTM5-6; assay type: cell-based, mouse / human
Sequence of mTRPA1-hTM5-6 (Q8BLA8 1-1125 with the stated changes): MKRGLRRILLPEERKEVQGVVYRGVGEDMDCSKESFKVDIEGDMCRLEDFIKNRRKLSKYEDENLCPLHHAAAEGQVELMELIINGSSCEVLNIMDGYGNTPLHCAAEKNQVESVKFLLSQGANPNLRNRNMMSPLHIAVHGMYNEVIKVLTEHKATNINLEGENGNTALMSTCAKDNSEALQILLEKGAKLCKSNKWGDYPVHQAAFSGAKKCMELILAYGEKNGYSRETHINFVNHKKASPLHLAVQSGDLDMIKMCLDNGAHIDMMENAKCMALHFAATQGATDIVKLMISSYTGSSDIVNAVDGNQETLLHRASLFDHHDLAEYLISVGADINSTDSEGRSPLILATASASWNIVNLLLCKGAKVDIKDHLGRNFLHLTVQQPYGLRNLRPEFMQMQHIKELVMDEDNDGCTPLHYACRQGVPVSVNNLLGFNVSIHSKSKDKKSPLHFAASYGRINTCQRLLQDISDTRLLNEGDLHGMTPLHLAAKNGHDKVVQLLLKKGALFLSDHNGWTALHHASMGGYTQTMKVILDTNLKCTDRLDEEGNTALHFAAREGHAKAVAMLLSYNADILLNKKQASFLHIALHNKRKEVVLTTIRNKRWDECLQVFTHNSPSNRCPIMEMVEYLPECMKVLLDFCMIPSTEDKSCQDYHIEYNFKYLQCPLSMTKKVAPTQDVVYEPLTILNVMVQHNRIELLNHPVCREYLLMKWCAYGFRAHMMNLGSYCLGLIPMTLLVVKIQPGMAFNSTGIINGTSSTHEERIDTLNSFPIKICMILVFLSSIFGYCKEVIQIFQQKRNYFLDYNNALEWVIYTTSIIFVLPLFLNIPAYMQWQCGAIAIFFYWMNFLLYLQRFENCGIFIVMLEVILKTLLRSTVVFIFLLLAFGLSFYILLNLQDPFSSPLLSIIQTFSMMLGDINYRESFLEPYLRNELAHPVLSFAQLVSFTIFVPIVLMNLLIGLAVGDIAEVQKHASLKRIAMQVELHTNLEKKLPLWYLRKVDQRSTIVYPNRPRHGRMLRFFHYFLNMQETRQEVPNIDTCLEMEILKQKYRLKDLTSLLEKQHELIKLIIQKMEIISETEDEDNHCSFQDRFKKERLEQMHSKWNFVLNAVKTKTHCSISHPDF

[10] = target: T2, hTRPA1; assay: Whole-cell patch-clamp, HEK293T cells expressing hTRPA1; assay type: cell-based; settings: 250 μM menthol; at +120 mV; n = 11
[11] = target: T4, mTRPA1; assay: Whole-cell patch-clamp, HEK293T cells expressing mTRPA1; assay type: cell-based; settings: 100 μM MO in the presence of 500 μM menthol; n = 7
[12] = tested on: mTRPA1-dTM5; assay: Whole-cell patch-clamp, HEK293T cells expressing mTRPA1-dTM5; assay type: cell-based, mouse / Drosophila melanogaster; settings: 50 μM menthol
[13] = target: hTRPA1-V875G (Homo sapiens, UniProt O75762, V875G); assay: FLIPR calcium assay, mutant hTRPA1-V875G; assay type: cell-based
[14] = target: hTRPA1-mTM5-6 (Homo sapiens, UniProt O75762, A939G/E920D/H933Y/I890V/I905L/I946M/L867F/L894F/L927F/P897A/S900T/S921A/S937T/S943A/V875G/V942I/Y926L); assay: FLIPR calcium assay, chimera hTRPA1-mTM5-6; assay type: cell-based, human / mouse
[15] = target: hTRPA1-FGFATLIAM (Homo sapiens, UniProt O75762, I905L/I946M/L867F/L894F/P897A/S900T/S943A/V875G/V942I); assay: FLIPR calcium assay, mutant hTRPA1-[…]; assay type: cell-based
[16] = target: T4, mTRPA1; settings: read-out: IC50, inhibition of MO-induced mTRPA1 activity
[17] = target: mTRPA1-S876V/T877L (Mus musculus, UniProt Q8BLA8, S876V/T877L); assay type: cell-based

T2 sequence (O75762 whole entry): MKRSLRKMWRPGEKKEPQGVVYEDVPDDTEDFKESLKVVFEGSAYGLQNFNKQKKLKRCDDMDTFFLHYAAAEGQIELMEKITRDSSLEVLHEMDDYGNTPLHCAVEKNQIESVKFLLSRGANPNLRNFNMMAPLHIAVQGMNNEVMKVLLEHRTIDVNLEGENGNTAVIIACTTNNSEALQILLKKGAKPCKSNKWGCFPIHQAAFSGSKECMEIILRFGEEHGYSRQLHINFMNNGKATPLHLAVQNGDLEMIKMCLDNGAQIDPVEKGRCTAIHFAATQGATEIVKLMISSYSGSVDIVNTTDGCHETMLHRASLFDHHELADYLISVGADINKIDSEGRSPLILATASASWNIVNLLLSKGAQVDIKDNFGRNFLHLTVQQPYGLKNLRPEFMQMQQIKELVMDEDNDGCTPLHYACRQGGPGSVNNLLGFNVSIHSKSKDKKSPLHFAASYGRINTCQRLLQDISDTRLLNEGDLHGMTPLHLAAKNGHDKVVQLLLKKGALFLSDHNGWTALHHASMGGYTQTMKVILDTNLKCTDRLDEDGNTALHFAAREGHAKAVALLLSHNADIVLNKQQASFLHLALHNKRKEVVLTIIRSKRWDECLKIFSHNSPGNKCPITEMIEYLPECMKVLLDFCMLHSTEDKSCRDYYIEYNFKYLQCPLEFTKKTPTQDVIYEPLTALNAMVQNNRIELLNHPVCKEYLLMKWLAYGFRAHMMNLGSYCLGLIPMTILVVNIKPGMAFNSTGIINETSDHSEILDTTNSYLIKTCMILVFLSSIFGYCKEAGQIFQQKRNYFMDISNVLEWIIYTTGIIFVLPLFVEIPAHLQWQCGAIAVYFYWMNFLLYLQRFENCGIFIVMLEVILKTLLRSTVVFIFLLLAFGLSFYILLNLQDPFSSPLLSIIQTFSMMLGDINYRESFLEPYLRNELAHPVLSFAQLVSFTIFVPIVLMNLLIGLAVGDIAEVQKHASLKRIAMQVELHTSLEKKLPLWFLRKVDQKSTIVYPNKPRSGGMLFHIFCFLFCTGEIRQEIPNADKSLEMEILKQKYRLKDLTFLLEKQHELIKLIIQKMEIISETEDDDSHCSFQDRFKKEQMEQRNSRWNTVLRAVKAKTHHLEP
Sequence of dTRPA1-mN (Q8BLA8 1-720, one chain of several): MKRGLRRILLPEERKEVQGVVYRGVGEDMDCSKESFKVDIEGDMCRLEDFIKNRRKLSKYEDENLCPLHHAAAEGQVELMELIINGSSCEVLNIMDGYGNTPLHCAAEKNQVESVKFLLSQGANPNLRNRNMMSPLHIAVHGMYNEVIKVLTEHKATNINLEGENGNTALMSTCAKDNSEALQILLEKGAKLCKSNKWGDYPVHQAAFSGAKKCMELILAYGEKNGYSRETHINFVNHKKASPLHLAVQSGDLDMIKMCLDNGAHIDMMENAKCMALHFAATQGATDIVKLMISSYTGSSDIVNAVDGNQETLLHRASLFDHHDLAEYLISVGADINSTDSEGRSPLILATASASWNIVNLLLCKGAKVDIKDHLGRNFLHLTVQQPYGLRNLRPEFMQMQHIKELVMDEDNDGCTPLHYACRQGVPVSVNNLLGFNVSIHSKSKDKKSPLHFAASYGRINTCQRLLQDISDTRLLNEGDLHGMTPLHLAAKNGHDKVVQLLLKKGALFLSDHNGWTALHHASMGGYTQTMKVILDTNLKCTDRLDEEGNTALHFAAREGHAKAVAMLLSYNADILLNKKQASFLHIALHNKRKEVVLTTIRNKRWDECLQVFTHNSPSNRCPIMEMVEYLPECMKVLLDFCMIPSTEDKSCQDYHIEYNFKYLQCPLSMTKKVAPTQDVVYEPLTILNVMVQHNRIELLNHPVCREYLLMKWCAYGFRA

**Q.** With Cl.Cl.Cl.Cl.Cl.Cl.N.N.N.N.N.N.N.N.N.N.N.N.N.N.[O-2].[O-2].[Ru+3].[Ru+3].[Ru+4] [Ruthenium Red, ruthenium red] as the molecule, how does the IC50 ([1]; read-out: hTRPA1-dTM5 IC50 (Inhibition)) read?
**A.** 0.48 ± 0.03 µM

**Q.** How did the IC50 [2] turn out when CC(C)c1ccc(NC(=O)Cn2cnc3c2c(=O)n(C)c(=O)n3C)cc1 [HC030031, 2-(1,3-dimethyl-2,6-dioxo-1,2,3,6-tetrahydro-7H-purin-7-yl)-N-(4-isopropylphenyl)acetamide] was run?
**A.** 12.9 ± 2.67 µM

**Q.** Which EC50 ([2]; read-out: hTRPA1 EC50 (Activation)) does the source give for CC(C)=CCC/C(C)=C/CC/C(C)=C/CSc1ccccc1C(=O)O [FTS, Farnesyl thiosalicylic acid] here?
**A.** 7.3 ± 1.1 µM

**Q.** What about the “hTRPA1-dTM5 EC50 (Activation)” value [1] of the same molecule?
**A.** No activation

**Q.** Which results are given for CC(C)[C@@H]1CC[C@@H](C)C[C@H]1O [Menthol, (-)-Menthol]?
**A.** menthol effect at dTRPA1-mN [3]: ineffective; menthol sensitivity of mosquito-TRPA1 [4]: not sensitive; activation of hTRPA1-dTM5 current [5]: completely abolished; menthol sensitivity of fugu-TRPA1 [6]: not sensitive; block of the response of hTRPA1 to 100 μM MO [2]: did not block; change in evoked current in dTRPA1 cells ([7]; 25-100 μM menthol, n = 7): -0.53 ± 0.3 pA/pF; activation of dTRPA1 current ([7]; 250-500 μM menthol, 3 min of recording): ineffective; IC50 [8]: 73.4 ± 11.5 µM; EC50 [9]: 43.9 ± 6.4 µM; inhibition of MO-evoked mTRPA1-hTM5-6 activity ([9]; FLIPR, 100 μM MO): not significantly inhibited; whole cell current density evoked in hTRPA1 cells [10]: 59.0 ± 10.2 pA/pF; MO-induced mTRPA1 currents at +120 mV, normalized to currents elicited at +180 mV [11]: 16 ± 7%; hTRPA1-dTM5 EC50 (Activation) ([1]; FLIPR, responses normalized to 100 μM MO): No activation; activation of mTRPA1-dTM5 current [12]: completely abolished; IC50 [13]: 119 ± 16.5 µM; IC50 [14]: 71 ± 16.5 µM; IC50 [15]: 36.6 ± 9 µM

**Q.** For CC(=NO)/C(C)=C\c1ccc(Cl)cc1 [AP18, (Z)-4-(4-chlorophynyl)-3-methylbut-3-en-2-oxime], which IC50 ([2]; read-out: hTRPA1 IC50 (Inhibition)) is on record?
**A.** 0.6 ± 0.17 µM

**Q.** And the IC50 [16]?
**A.** 0.69 ± 0.09 µM

**Q.** What about the “inhibitory effect on MO-induced mTRPA1-S876V/T877L activity” value [17] of the same molecule?
**A.** totally abolished

**Q.** And the “hTRPA1-dTM5 IC50 (Inhibition)” value [1]?
**A.** No inhibition

— publication PMC2678945 (The Journal of neuroscience : the official journal of the …, 2008)
